Entries after “also recorded” stand apart in the source; their conditions may differ.
Experiments:
SRPK1 [1] = molecular target: T1, SRPK1 (Homo sapiens, UniProt Q96SB4); experiment: Differential scanning fluorimetry (DSF); assay type: binding; conditions: higher ΔTm indicates higher affinity
T1 construct: 0.1 µg of purified SRPK1 kinase
Description: Differential Scanning Fluorimetry was performed as described in Federov et al (2011). […]

SRPK1 [2] = molecular target: T1, SRPK1; experiment: In vitro kinase assay (Kinase-Glo), SRPK1 inhibition; assay type: biochemical; conditions: for IC50: SRPK1 inhibition assay, 1 µM ATP, SRSF1 RS peptide, 30°C 10 minutes
Description: Candidate compounds were tested for SRPK1 inhibition using a Kinase-Glo assay (Promega, Southampton, UK32). […] Candidate compounds were serially diluted from 10 µM to 0.5 nM and added to the reaction mixture, wells with omitted SRPK1 kinase and omitted compounds were also added as controls. All wells contained 1% DMSO (Fisher Scientific, Loughborough, UK). One micromolar ATP was added, wells minus ATP were used as background controls. The plate was then incubated at 30°C for 10 minutes. An equal volume of Kinase-Glo (25 µL; Promega) was added to each well and the plate read for luminescence using a Fluostar Optima (BMG Labtech) .

laser-induced CNV = experiment: Laser-induced choroidal neovascularisation (CNV) model, topical eye drops; assay type: in vivo, C57/B6 mice; conditions: for anti-angiogenic efficacy as an eye drop (CNV lesion size): twice daily eye drops, compared with reference compound, Figures 4-7
Description: 6-8 week-old female C57/B6 mice were anesthetized with an intraperitoneal injection of a mixture of 50 mg/kg ketamine and 0.5 mg/kg medetomidine. The pupils were immediately dilated by topical (eyedrop) application with a dilator such as 5% phenylephrine hydrochloride and 1% tropicamide. Four photocoagulation lesions were delivered with a green Merilas 532α laser (450 mW, 130 ms) between the "large" retinal vessels in clear space with no vessels in a peripapillary distribution at a distance of 1-2 disc-diameters in each eye. Only clean laser lesions with a subretinal bubble at the time of treatment were included in the study. Immediately following laser photocoagulation the animals were given topical eye drops of candidate compounds twice daily (10 µl, eyes held for 30 seconds to prevent animal wiping drop away).
After one week, mice were anesthetized with an intraperitoneal injection of a mixture of 50 mg/kg ketamine and 0.5 mg/kg medetomidine. The pupils were immediately dilated by topical (eyedrop) application with a dilator such as 5% phenylephrine hydrochloride and 1% tropicamide. Mice were administered an intraperitoneal injection of sodium fluorescein (10%). Phase contrast and green fluorescent fundus images were taken with an angiography microscope and camera with each lesion in focus. The mice were killed by a schedule 1 method and eyes were either unfixed for retinal dissection and protein extraction, or fixed and enucleated and choroids stained and examined.

[3] = test system: retinal pigmented epithelial cells; experiment: Isoform specific VEGF ELISA in retinal pigmented epithelial cells; assay type: cell-based; conditions: relative to DMSO control; Figure 3
Description: 96-well clear microplate (high sensitivity thermo immulon or costar 9018) were coated with 100 µL of 10 µg/ml VEGFxxxb or 0.25 µg/ml anti-hVEGF165a per well. The plate was sealed with parafilm and incubated overnight on the shaker at room temp. Each well was aspirated and washed with Wash Buffer (200 µl PBS-Tween 0.05%), two times for a total of three washes. After the last wash, remaining Wash Buffer was removed by inverting the plate and blotting it against clean paper towels. Plates were blocked by adding 100 µl of Reagent Diluent (1%BSA/PBS) to each well and incubated at room temp on a shaker for 2 hours. The aspiration/wash step was repeated. 100 µL of standards or samples in 1% BSA/PBS were added to each well, covered with parafilm and incubated 2 hours at room temperature. The aspiration/wash was repeated and 100 µL of 100 ng/ml Detection Antibody (BAF293), diluted in Reagent Diluent, was added to each well which were covered with parafilm and incubated 2 hours at room temp. The aspiration/wash was repeated and 100 µL of the working dilution of Streptavidin-HRP (1:200 dilution) was added to each well. […] The optical density of each well was measured immediately, using a microplate reader set to 450 nm.
To determine whether these compounds could switch splicing of VEGF isoforms, VEGF was measured in retinal pigmented epithelial cells by isoform specific ELISA.

[4] = test system: primary RPE cells and ARPE-19 cells; experiment: qRT-PCR and conventional PCR of VEGF-A alternative splicing; assay type: cell-based, human; conditions: Figures 8 and 9
From the text: Primary human retinal epithelial cells were lysed in Trizol reagent and mRNA was extracted using the method of Chomczynski and Sacchi, or using an RNeasy RNA extraction kit (Qiagen, UK). mRNA was reverse transcribed using Thermoscript reverse transcriptase (Fisher Scientific, UK). The cDNA was amplified using primers designed to amplify the region spanning the proximal and distal splice sites in human VEGF-A165a and VEGF-A165b, to amplify both isoforms and differentiate between them due to the fact that the exon 8b-containing isoform is 66-bp shorter than the exon 8a-containing isoform. The primers used were; 5'-[…]-3' (SEQ ID NO:2) and 5'-[…]-3' (SEQ ID NO:3) with the following conditions; 96°C for 2 min followed by 45 cycles at 96°C-30s, 60°C-30s and 72 °C -30 s. The PCR mix consisted of DNA: 200 ng, MgCl2 0.25 mM, Primer each 1 nM, Taq polymerase 1 unit and dH2O up to 25 µl. Control plasmid concentration: VEGF165a 500 ng and VEGF165b 1 µg. PCR products were run on 3% agarose gels containing 0.5 µg/ml ethidium bromide.
RNA was isolated and reverse transcribed as described above. Quantitative PCR (qPCR) was performed with a LightCycler 480 (Roche) q-PCR machine. The qPCR mix included PCR-grade dH2O 3 µl, PCR Primer (1 µM) 2 µl. […]
VEGF-A alternative splicing was further measured in retinal pigmented epithelial cells by qRT-PCR and conventional PCR.

T1 sequence (Q96SB4 whole entry): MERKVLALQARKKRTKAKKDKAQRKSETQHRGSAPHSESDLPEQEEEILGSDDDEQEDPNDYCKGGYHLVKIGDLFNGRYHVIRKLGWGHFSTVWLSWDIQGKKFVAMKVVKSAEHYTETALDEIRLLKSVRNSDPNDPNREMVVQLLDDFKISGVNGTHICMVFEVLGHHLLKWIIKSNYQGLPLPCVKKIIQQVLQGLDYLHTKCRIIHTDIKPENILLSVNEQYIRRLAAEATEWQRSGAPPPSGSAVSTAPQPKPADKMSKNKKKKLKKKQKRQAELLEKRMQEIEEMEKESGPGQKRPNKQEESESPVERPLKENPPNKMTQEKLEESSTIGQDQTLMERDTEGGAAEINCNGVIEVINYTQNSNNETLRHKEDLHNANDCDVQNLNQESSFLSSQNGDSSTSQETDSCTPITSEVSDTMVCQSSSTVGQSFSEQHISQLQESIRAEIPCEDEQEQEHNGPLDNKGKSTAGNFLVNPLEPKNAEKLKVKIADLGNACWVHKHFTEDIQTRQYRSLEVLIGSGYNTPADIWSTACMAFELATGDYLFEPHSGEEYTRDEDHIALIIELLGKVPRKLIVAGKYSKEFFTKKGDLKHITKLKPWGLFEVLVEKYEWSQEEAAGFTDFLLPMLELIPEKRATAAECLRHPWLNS

DSF (ΔTm/°C) (SRPK1 [1]) [°C] | IC50 (SRPK1 [2]) [nM] | SMILES | further results
15.95 | 17.6 | Cc1ccc(C(=O)Nc2cc(C(F)(F)F)ccc2N2CCN(Cc3ccco3)CC2)o1 [Compound 8, 5-methyl-N-(2-(4-((furan-2-yl)methyl)piperazin-1-yl)-5-(trifluoromethyl)phenyl)furan-2-carboxamide] | potency against SRPK1 relative to analogous compounds in which R3 is a pyridyl ring (SRPK1 [2]; by kinase assay or differential scanning fluorimetry, Figures 1 and 2): improved potency
11.64 | 62.4 | O=C(Nc1cc(C(F)(F)F)ccc1N1CCN(Cc2cc[nH]n2)CC1)c1ccco1 [Compound 9, N-(2-(4-((1H-pyrazol-3-yl)methyl)piperazin-1-yl)-5-(trifluoromethyl)-phenyl)furan-2-carboxamide] | –
12.94 | – | O=C(Nc1cc(C(F)(F)F)ccc1N1CCN(Cc2cscn2)CC1)c1ccco1 [Compound 11, N-(2-(4-(thiazol-4-ylmethyl)piperazin-1-yl)-5-(trifluoromethyl)-phenyl)furan-2-carboxamide] | –
11.97 | – | O=C(Nc1cc(Cl)ccc1N1CCN(Cc2ccco2)CC1)c1ccccn1 [Compound 29, N-(5-chloro-2-(4-(furan-2-ylmethyl)piperazin-1-yl)phenyl)picolinamide] | –
14.44 | – | O=C(Nc1cc(C(F)(F)F)ccc1N1CCN(Cc2ccco2)CC1)c1ccccn1 [Compound 28, N-(2-(4-(furan-2-ylmethyl)piperazin-1-yl)-5-(trifluoromethyl)phenyl)-picolinamide] | –
10.87 | – | Cn1ccc(CN2CCN(c3ccc(C(F)(F)F)cc3NC(=O)c3ccco3)CC2)n1 [Compound 10, N-(2-(4-((1-methyl-1H-pyrazol-3-yl)methyl)piperazin-1-yl)-5-(trifluoromethyl)phenyl)furan-2-carboxamide] | –

More lines, now with the values behind:

SMILES | DSF (ΔTm/°C) (SRPK1 [1]) [°C] | IC50 (SRPK1 [2]) [nM] | further results
O=C(Nc1cc(C(F)(F)F)ccc1N1CCN(Cc2cocn2)CC1)c1ccc(-c2ccncc2)o1 [Compound 17, N-(2-(4-(oxazol-4-ylmethyl)piperazin-1-yl)-5-(trifluoromethyl)phenyl)-5-(pyridin-4-yl)furan-2-carboxamide] | – | – | anti-angiogenic efficacy as an eye drop (CNV lesion size) (laser-induced CNV): same anti-angiogenic activity on lesion size and the same efficacy as reference compounds; VEGF165b and VEGF165 protein [3]: increase in VEGF165b, but not VEGF165 protein
Cc1ccc(C(=O)Nc2cc(C(F)(F)F)ccc2N2CCN(Cc3cn(Cc4ccccc4)nn3)CC2)o1 [Compound 7, N-(2-(4-((1-benzyl-1H-1,2,3-triazol-4-yl)methyl)piperazin-1-yl)-5-(trifluoromethyl)phenyl)-5-methylfuran-2-carboxamide] | 8.84 | 337 | –
O=C(Nc1cc(C(F)(F)F)ccc1N1CCN(Cc2cc[nH]n2)CC1)c1ccc(C2CCOCC2)o1 [Compound 14, N-(2-(4-((1H-pyrazol-3-yl)methyl)piperazin-1-yl)-5-(trifluoromethyl)-phenyl)-5-(tetrahydro-2H-pyran-4-yl)furan-2-carboxamide] | 17.36 | 3.5 | levels of VEGF165b relative to VEGF165 RNA [4]: decrease VEGF-A165a/VEGF165b mRNA isoform expression; also recorded: decrease in VEGF165
O=C(Nc1cc(C(F)(F)F)ccc1N1CCN(Cc2cncs2)CC1)c1ccco1 [Compound 13, N-(2-(4-(thiazol-5-ylmethyl)piperazin-1-yl)-5-(trifluoromethyl)-phenyl)furan-2-carboxamide] | 12.99 | 39.5 | –
O=C(Nc1cc(C(F)(F)F)ccc1N1CCN(Cc2cocn2)CC1)c1ccc(-c2ccncc2)o1 [N-(2-(4-(oxazol-4-ylmethyl)piperazin-1-yl)-5-(trifluoromethy] [N-(2-(4-(oxazol-4-ylmethyl)piperazin-1-yl)-5-(trifluoromethyl)phenyl)-5-(pyridin-4-yl)furan-2-carboxamide] | – | – | factor more effective than the known pazopanib-based eye drop treatment for AMD (laser-induced CNV; eye drop): 10; anti-angiogenic efficacy as an eye drop (CNV lesion size) (laser-induced CNV): same efficacy
O=C(Nc1cc(C(F)(F)F)ccc1N1CCN(Cc2cscn2)CC1)c1ccc(C2CCOCC2)o1 [Compound 19, 5-(tetrahydro-2H-pyran-4-yl)-N-(2-(4-(thiazol-4-ylmethyl)piperazin-1-yl)-5-(trifluoromethyl)phenyl)furan-2-carboxamide] | 18.03 | 1.7 | –
